Results taken from PubChem BioAssay AID1259407 (Chemical Carcinogenesis Research Information System (CCRIS), 2018).
“Also recorded” adds a separate entry of the source. Active and inactive are the calls of the source. The rule behind the calls is not given here.

Tested on: CCRIS mutagenicity, Ames/micronucleus/aberration tests
Experiment: CCRIS mutagenicity studies
[1] = Test System: AMES SALMONELLA TYPHIMURIUM, Strain/Indicator: TA98, Metabolic Activation: NONE, Method: PREINCUBATION
[2] = Test System: AMES SALMONELLA TYPHIMURIUM, Strain/Indicator: TA100, Metabolic Activation: NONE, Method: PREINCUBATION

CC1(C)[C@H](C(=O)O[C@H](C#N)c2cccc(Oc3ccccc3)c2)[C@@H]1C(Br)C(Br)(Br)Br (stereo not given in full)
mutagenic call (End Point: In vivo chromosomal aberrations, Test System: Bone marrow cells, Species: Rat, Strain/Sex: Sprague Dawley CD, Route: Gavage): inactive; negative
mutagenic call (Test System: Ames Salmonella typhimurium, Strain/Indicator: TA98, Metabolic Activation: None): inactive; negative (precipitation above 100 ug/plate)
mutagenic call (Test System: Ames Salmonella typhimurium, Strain/Indicator: TA98, Metabolic Activation: Rat, Liver, S-9, Aroclor 1254): inactive; negative (precipitation above 100 ug/plate)
mutagenic call (Test System: Ames Salmonella typhimurium, Strain/Indicator: TA100, Metabolic Activation: None): inactive; negative (precipitation above 100 ug/plate)
mutagenic call (Test System: Ames Salmonella typhimurium, Strain/Indicator: TA100, Metabolic Activation: Rat, Liver, S-9, Aroclor 1254): inactive; negative (precipitation above 100 ug/plate)
mutagenic call (Test System: Ames Salmonella typhimurium, Strain/Indicator: TA1535, Metabolic Activation: None): inactive; negative (precipitation above 100 ug/plate)
mutagenic call (Test System: Ames Salmonella typhimurium, Strain/Indicator: TA1535, Metabolic Activation: Rat, Liver, S-9, Aroclor 1254): inactive; negative (precipitation above 100 ug/plate)
mutagenic call (Test System: Ames Salmonella typhimurium, Strain/Indicator: TA1537, Metabolic Activation: None): inactive; negative (precipitation above 100 ug/plate)
mutagenic call (Test System: Ames Salmonella typhimurium, Strain/Indicator: TA1537, Metabolic Activation: Rat, Liver, S-9, Aroclor 1254): inactive; negative (precipitation above 100 ug/plate)
mutagenic call (Test System: Ames Salmonella typhimurium, Strain/Indicator: TA1538, Metabolic Activation: None): inactive; negative (precipitation above 100 ug/plate)
mutagenic call (Test System: Ames Salmonella typhimurium, Strain/Indicator: TA1538, Metabolic Activation: Rat, Liver, S-9, Aroclor 1254): inactive; negative (precipitation above 100 ug/plate)

Nc1ccc(Oc2ccc(Oc3ccc(N)cc3)cc2)cc1
mutagenic call [1]: inactive; negative
mutagenic call [2]: inactive; negative
mutagenic call (Test System: AMES SALMONELLA TYPHIMURIUM, Strain/Indicator: TA100, Metabolic Activation: RAT, LIVER, S-9, PCB, Method: PREINCUBATION): active; positive

Brc1c(Br)c(Br)c(Oc2c(Br)c(Br)c(Br)c(Br)c2Br)c(Br)c1Br
mutagenic call (End Point: IN VITRO CHROMOSOMAL ABERRATIONS, Test System: CHO CELLS, Metabolic Activation: NONE): inactive; negative; precipitation occurred at 160 and 500 ug/ml; also recorded: inactive; negative; precipitation occurred at 250 and 500 ug/ml
mutagenic call (End Point: IN VITRO CHROMOSOMAL ABERRATIONS, Test System: CHO CELLS, Metabolic Activation: RAT, LIVER, S-9, AROCLOR 1254): inactive; negative; precipitation occurred at 250 and 500 ug/ml
mutagenic call (Test System: AMES SALMONELLA TYPHIMURIUM, Strain/Indicator: TA98, Metabolic Activation: HAMSTER, LIVER, S-9, AROCLOR 1254, Method: PREINCUBATION): inactive; negative
mutagenic call [1]: inactive; negative
mutagenic call (Test System: AMES SALMONELLA TYPHIMURIUM, Strain/Indicator: TA98, Metabolic Activation: RAT LIVER S-9, PHENOBARBITAL AND BETA-NAPHTHOFLAVONE, Method: PREINCUBATION): inactive; negative
mutagenic call (Test System: AMES SALMONELLA TYPHIMURIUM, Strain/Indicator: TA98, Metabolic Activation: RAT, LIVER, S-9, AROCLOR 1254, Method: PREINCUBATION): inactive; negative
mutagenic call (Test System: AMES SALMONELLA TYPHIMURIUM, Strain/Indicator: TA100, Metabolic Activation: HAMSTER, LIVER, S-9, AROCLOR 1254, Method: PREINCUBATION): inactive; negative
mutagenic call [2]: inactive; negative
mutagenic call (Test System: AMES SALMONELLA TYPHIMURIUM, Strain/Indicator: TA100, Metabolic Activation: RAT LIVER S-9, PHENOBARBITAL AND BETA-NAPHTHOFLAVONE, Method: PREINCUBATION): inactive; negative
mutagenic call (Test System: AMES SALMONELLA TYPHIMURIUM, Strain/Indicator: TA100, Metabolic Activation: RAT, LIVER, S-9, AROCLOR 1254, Method: PREINCUBATION): inactive; negative
mutagenic call (Test System: AMES SALMONELLA TYPHIMURIUM, Strain/Indicator: TA1535, Metabolic Activation: HAMSTER, LIVER, S-9, AROCLOR 1254, Method: PREINCUBATION): inactive; negative
mutagenic call (Test System: AMES SALMONELLA TYPHIMURIUM, Strain/Indicator: TA1535, Metabolic Activation: NONE, Method: PREINCUBATION): inactive; negative
mutagenic call (Test System: AMES SALMONELLA TYPHIMURIUM, Strain/Indicator: TA1535, Metabolic Activation: RAT LIVER S-9, PHENOBARBITAL AND BETA-NAPHTHOFLAVONE, Method: PREINCUBATION): inactive; negative
mutagenic call (Test System: AMES SALMONELLA TYPHIMURIUM, Strain/Indicator: TA1535, Metabolic Activation: RAT, LIVER, S-9, AROCLOR 1254, Method: PREINCUBATION): inactive; negative
mutagenic call (Test System: AMES SALMONELLA TYPHIMURIUM, Strain/Indicator: TA1537, Metabolic Activation: HAMSTER, LIVER, S-9, AROCLOR 1254, Method: PREINCUBATION): inactive; negative
mutagenic call (Test System: AMES SALMONELLA TYPHIMURIUM, Strain/Indicator: TA1537, Metabolic Activation: NONE, Method: PREINCUBATION): inactive; negative
mutagenic call (Test System: AMES SALMONELLA TYPHIMURIUM, Strain/Indicator: TA1537, Metabolic Activation: RAT LIVER S-9, PHENOBARBITAL AND BETA-NAPHTHOFLAVONE, Method: PREINCUBATION): inactive; negative
mutagenic call (Test System: AMES SALMONELLA TYPHIMURIUM, Strain/Indicator: TA1537, Metabolic Activation: RAT, LIVER, S-9, AROCLOR 1254, Method: PREINCUBATION): inactive; negative
mutagenic call (Test System: CHO/HGPRT, Strain/Indicator: CHO/GIEMSA, Metabolic Activation: NONE, Method: STANDARD PLATE): inactive; negative
mutagenic call (Test System: CHO/HGPRT, Strain/Indicator: CHO/GIEMSA, Metabolic Activation: RAT, LIVER, S-9, AROCLOR 1254, Method: STANDARD PLATE): inactive; negative
mutagenic call (Test System: E.COLI, Strain/Indicator: WP2UVRA/PKM101, Metabolic Activation: NONE, Method: PREINCUBATION): inactive; negative
mutagenic call (Test System: E.COLI, Strain/Indicator: WP2UVRA/PKM101, Metabolic Activation: RAT LIVER S-9, PHENOBARBITAL AND BETA-NAPHTHOFLAVONE, Method: PREINCUBATION): inactive; negative
mutagenic call (Test System: MOUSE LYMPHOMA, Strain/Indicator: L5178Y (TK+/TK-), Metabolic Activation: NONE, Method: SUSPENSION/PLATE): inactive; negative
mutagenic call (Test System: MOUSE LYMPHOMA, Strain/Indicator: L5178Y (TK+/TK-), Metabolic Activation: RAT, LIVER, S-9, AROCLOR 1254, Method: SUSPENSION/PLATE): inactive; negative

C1=CC2OC2c2cccnc21 (stereo not given)
mutagenic call (Test System: AMES SALMONELLA TYPHIMURIUM, Strain/Indicator: TA100, Metabolic Activation: NONE, Method: STANDARD PLATE): inactive; negative
mutagenic call (Test System: AMES SALMONELLA TYPHIMURIUM, Strain/Indicator: TA100, Metabolic Activation: RAT, LIVER, S-9, AROCLOR 1254 (10% OR 20%), Method: STANDARD PLATE): inactive; negative
